From PMC7984254 (Biochimica et biophysica acta. Molecular cell research, 2020)

Columns and labels:
[1] = biological target: FGF14:Nav1.6 complex (CLuc-FGF14 and CD4-Nav1.6 C-tail-NLuc) (Homo sapiens, UniProt Q92915+Q9UQD0); test: cell-based; settings: for activity at 30 µM: HEK293, 2 h, read-out: % luminescence, FGF14:Nav1.6 complex (HTS); for initial dose/concentration dependency against FGF14:Nav1.6: screening library compound, Suppl. Fig. 3
FGF14^Y158A:Nav1.6 = FGF14^Y158A:Nav1.6 (Homo sapiens, UniProt Q92915+Q9UQD0, Y153A); test: LCA dose response, FGF14^Y158A:Nav1.6 mutant complex
[2] = test system: double stable HEK293 cells; test: CellTiter-Blue; format: cell-based; settings: 30 μM; fluorescence read after 16 h; relative to DMSO controls
Nav1.6 = test: Whole-cell patch-clamp electrophysiology in HEK-Nav1.6 cells; format: cell-based, human
[3] = test system: hippocampal CA1 pyramidal neurons; test: Ex vivo patch-clamp of hippocampal CA1 pyramidal neurons in brain slices; format: cell-based, mice; settings: 20 μM
[4] = biological target: FGF14:FGF14 dimer (CLuc-FGF14 and FGF14-NLuc) (Homo sapiens, UniProt Q92915); test: LCA counter-screen and dose response, FGF14:FGF14 homodimer; format: cell-based; settings: plateau; normalized to 0.3% DMSO

C[C@H]1[C@H](C)CC[C@]2(C(=O)O)CC[C@]3(C)C(=CC[C@@H]4[C@@]5(C)CC[C@H](O)C(C)(C)[C@@H]5CC[C@]43C)[C@H]12 [Ursolic Acid]
activity at 30 µM [1]: 104%

Cc1ccc2c(=O)c3ccccc3n(CCCN)c2c1C.O=C(O)C(=O)O [ER 27319]
initial dose/concentration dependency against FGF14:Nav1.6 [1]: less ideal

NC(=O)c1cnc(N[C@@H]2CCCC[C@@H]2N)nc1Nc1cccc(-n2nccn2)c1 [PRT062607]
initial dose/concentration dependency against FGF14:Nav1.6 [1]: promising concentration dependency

C1=C/COCc2cc(ccc2OCCN2CCCC2)Nc2nccc(n2)-c2cccc(c2)COC/1 [Pacritinib]
effect on FGF14^Y158A:Nav1.6 complex compared with FGF14^WT (FGF14^Y158A:Nav1.6): abolished

N#CCNC(=O)c1ccc(-c2ccnc(Nc3ccc(N4CCOCC4)cc3)n2)cc1 [Momelotinib]
effect on FGF14^Y158A:Nav1.6 complex compared with FGF14^WT (FGF14^Y158A:Nav1.6): abolished

O=C(Nc1ccc([N+](=O)[O-])cc1Cl)c1cc(Cl)ccc1O [Niclosamide]
activity at 30 µM [1]: 18.7%

O=[N+]([O-])c1ccc2c(c1)S(=O)(=O)C=C2 [Stattic]
% fluorescence from the CTB assay (cell viability) [2]: 57.2%

Cc1cnc(Nc2ccc(OCCN3CCCC3)cc2)nc1Nc1cccc(S(=O)(=O)NC(C)(C)C)c1 [Fedratinib]
V½ of activation (Nav1.6; HEK-Nav1.6 FGF14-GFP, 20 μM): −30.56 ± 1.9 mV | V½ of steady-state inactivation (Nav1.6; HEK-Nav1.6 FGF14-GFP, 20 μM): −60.8 ± 1.2 mV | decay time constant (τ) of INa (Nav1.6; HEK-Nav1.6 FGF14-GFP, 20 μM): 1.4 ± 0.06 ms | peak transient Na+ current (INa) density (Nav1.6; HEK-Nav1.6 FGF14-GFP, 20 μM): −81.27 ± 11.3 pA/pF | long-term inactivation (LTI), normalized INa at pulse 3 (Nav1.6; HEK-Nav1.6 FGF14-GFP, 30 min incubation, pulse 3): 0.89 ± 0.02% | effect on long-term inactivation (LTI) (Nav1.6; HEK-Nav1.6 FGF14^Y158A): no effect | peak transient Na+ current (INa) density (Nav1.6; HEK-Nav1.6 FGF14^Y158A-GFP, 20 μM): −26.65 ± 3.5 pA/pF | V½ of activation (Nav1.6; HEK-Nav1.6 FGF14^Y158A, 20 μM): −22.69 ± 1.2 mV | V½ of steady-state inactivation, change compared to DMSO (Nav1.6; HEK-Nav1.6 FGF14^Y158A, 20 μM): no significant change | decay time constant (τ) of INa (Nav1.6; HEK-Nav1.6 FGF14^Y158A, 20 μM): 1.8 ± 0.11 ms | peak transient Na+ current (INa) density (Nav1.6; HEK-Nav1.6 GFP (channel alone), 20 μM): −59.43 ± 6.0 pA/pF | V½ of activation (Nav1.6; HEK-Nav1.6 GFP, 20 μM): −25.7 ± 1.7 mV | V½ of steady-state inactivation (Nav1.6; HEK-Nav1.6 GFP, 20 μM): −61.7 ± 1.0 mV | decay time constant (τ) of INa (Nav1.6; HEK-Nav1.6 GFP, 20 μM): 1.3 ± 0.07 ms | resting membrane potential, current threshold and voltage threshold for action potential firing ([3]; Fgf14^+/+ mice): no significant changes | maximum number of evoked action potentials (AP) ([3]; Fgf14^+/+ mice, 1 hr slice incubation): 11.3 ± 1.4 | evoked action potentials ([3]; Fgf14^−/− mice, 1 hr slice incubation): 11.8 ± 2.7

Cc1cnc(Nc2ccc(N3CCN(C)CC3)cc2)nc1Nc1cccc(S(=O)(=O)NC(C)(C)C)c1 [TG101209]
FGF14^Y158A:Nav1.6 IMin/EMax (FGF14^Y158A:Nav1.6; plateau, normalized to 0.3% DMSO): 78.0 percent luminescence | FGF14:FGF14^WT IMin/EMax [4]: 150.6 percent luminescence

CC(C)(O)/C=C/C(=O)[C@](C)(O)[C@H]1[C@H](O)C[C@@]2(C)[C@@H]3CC=C4[C@@H](C=C(O)C(=O)C4(C)C)[C@]3(C)C(=O)C[C@]12C [Cucurbitacin I]
activity at 30 µM [1]: 5.6% | initial dose/concentration dependency against FGF14:Nav1.6 [1]: highly potent but undesirable curve shape
